Measured values: ChEMBL document CHEMBL2010660, “Synthesis, SAR and biological evaluation of 1,6-disubstituted-1H-pyrazolo[3,4-d]pyrimidines as dual inhibitors of Aurora kinases and CDK1” (Bioorg Med Chem Lett, 2012)
Calls of active or inactive are those of the source. No cut-off for these calls is given here.

How the values were obtained:
[1] = molecular target: T1, Aurora kinase A (Homo sapiens, UniProt O14965); test: Inhibition of aurora A kinase
T1 sequence (O14965 whole entry): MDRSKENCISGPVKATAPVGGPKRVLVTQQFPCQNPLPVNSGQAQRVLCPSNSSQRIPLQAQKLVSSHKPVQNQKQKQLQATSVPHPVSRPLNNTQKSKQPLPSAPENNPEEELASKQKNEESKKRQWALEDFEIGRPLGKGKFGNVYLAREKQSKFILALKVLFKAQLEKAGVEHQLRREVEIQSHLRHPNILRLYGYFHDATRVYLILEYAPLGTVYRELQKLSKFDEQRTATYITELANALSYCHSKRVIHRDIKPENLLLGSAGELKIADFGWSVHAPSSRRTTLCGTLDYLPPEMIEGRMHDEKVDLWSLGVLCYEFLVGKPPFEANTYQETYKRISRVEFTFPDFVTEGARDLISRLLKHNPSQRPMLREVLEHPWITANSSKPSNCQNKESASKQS

[2] = tested on: HCT-116; test: Cytotoxicity against human HCT116 cells after 5 days by MTS assay; assay type: functional, cell-based; conditions: HCT-116, 120 h
[3] = molecular target: Cyclin-dependent kinase 1 (Homo sapiens, UniProt P06493); test: Inhibition of CDK1
[4] = tested on: HCT-116; test: Cell cycle arrest in human HCT116 cells assessed as minimum concentration required for G2/M versus G1 peak ratio over 2; assay type: functional
[5] = molecular target: T2, Aurora kinase B (Homo sapiens, UniProt Q96GD4); test: Inhibition of aurora B kinase
[6] = Metabolic stability in mouse liver microsome assessed as ratio of clearance to hepatic blood flow; assay type: ADME; conditions: liver microsomes, read-out: QH
[7] = tested on: Mus musculus; test: Toxicity in nu/nu mouse xenografted with human HCT116 cells assessed as reluctance to move at 12.5 to 40 mg/kg, ip qd for 21 days; assay type: organism-based, HCT-116; design: dose 12.5-40 mg/kg, route intraperitoneal; conditions: in vivo, 504 h
[8] = Toxicity in human BMNC assessed as granulocyte/monocyte colony forming units ratio after 14 days by microscopic analysis; conditions: 336 h
[9] = tested on: Mus musculus; test: Toxicity in nu/nu mouse xenografted with human HCT116 cells assessed as mortality at 12.5 to 40 mg/kg, ip qd for 21 days; assay type: organism-based, HCT-116; design: dose 12.5-40 mg/kg, route intraperitoneal; conditions: in vivo, 504 h
[10] = tested on: Rattus norvegicus; test: Half life in rat at 4 mg/kg, iv; assay type: ADME, organism-based; design: dose 4 mg/kg, route intravenous; conditions: in vivo
[11] = tested on: Mus musculus; test: Inhibition of CDK1 in mouse serum assessed as decrease in histone H1 phosphorylation at 25 mg/kg, ip measured after 2 hrs; assay type: functional; conditions: route intraperitoneal
[12] = molecular target: T3, Aurora kinase A (Homo sapiens) (UniProt O14965); test: Inhibition of aurora A kinase phosphorylation in human K562 cells at 0.003 to 1 uM by Western blot analysis; assay type: cell-based
T3 sequence (whole entry): T1 sequence (O14965 whole entry)

[13] = molecular target: T2, Aurora kinase B; test: Inhibition of aurora B kinase phosphorylation in human K562 cells at 0.003 to 1 uM by Western blot analysis; assay type: cell-based
[14] = tested on: Mus musculus; test: Inhibition of aurora A kinase in mouse assessed as increase in histone H3 phosphorylation at 25 mg/kg, ip measured after 6 hrs; assay type: functional, organism-based; design: dose 25 mg/kg
[15] = tested on: Mus musculus; test: Toxicity in nu/nu mouse xenografted with human HCT116 cells assessed as weight loss at 12.5 to 40 mg/kg, ip qd for 21 days; assay type: organism-based, HCT-116; design: dose 12.5-40 mg/kg, route intraperitoneal; conditions: in vivo, 504 h
[16] = Half life in mouse at 25 mg/kg, ip; assay type: ADME, organism-based; design: dose 25 mg/kg, route intraperitoneal; conditions: in vivo
[17] = tested on: HCT-116; test: Antitumor activity against human HCT116 cells xenografted in nu/nu mouse assessed as tumor growth inhibition at 12.5 to 40 mg/kg, ip qd for 21 days; assay type: functional; conditions: dose mg/kg 12.5-40; route intraperitoneal
[18] = tested on: Rattus norvegicus; test: Apparent volume of distribution in rat at 4 mg/kg, iv; assay type: ADME, organism-based; design: dose 4 mg/kg, route intravenous; conditions: in vivo
[19] = AUC in rat at 4 mg/kg, iv; assay type: ADME, organism-based; design: dose 4 mg/kg, route intravenous; conditions: plasma
[20] = tested on: Mus musculus; test: Inhibition of CDK1 in mouse serum assessed as decrease in histone H3 phosphorylation at 25 mg/kg, ip measured after 2 hrs; assay type: functional; conditions: route intraperitoneal
[21] = Clearance in mouse at 25 mg/kg, ip; assay type: ADME, organism-based; design: dose 25 mg/kg, route intraperitoneal; conditions: in vivo
[22] = AUC in mouse at 25 mg/kg, ip; assay type: ADME, organism-based; design: dose 25 mg/kg, route intraperitoneal; conditions: plasma
[23] = tested on: Mus musculus; test: Toxicity in nu/nu mouse xenografted with human HCT116 cells assessed as hunched posture at 12.5 to 40 mg/kg, ip qd for 21 days; assay type: organism-based, HCT-116; design: dose 12.5-40 mg/kg, route intraperitoneal; conditions: in vivo, 504 h
[24] = tested on: Mus musculus; test: Apparent volume of distribution in mouse at 25 mg/kg, ip; assay type: ADME, organism-based; design: dose 25 mg/kg, route intraperitoneal; conditions: in vivo
[25] = tested on: Mus musculus; test: Inhibition of aurora A in mouse assessed as increase in histone H3 phosphorylation at 25 mg/kg, ip measured after 9 hrs; assay type: functional, organism-based; design: dose 25 mg/kg

Chain of Cyclin-dependent kinase 1 (P06493 whole entry): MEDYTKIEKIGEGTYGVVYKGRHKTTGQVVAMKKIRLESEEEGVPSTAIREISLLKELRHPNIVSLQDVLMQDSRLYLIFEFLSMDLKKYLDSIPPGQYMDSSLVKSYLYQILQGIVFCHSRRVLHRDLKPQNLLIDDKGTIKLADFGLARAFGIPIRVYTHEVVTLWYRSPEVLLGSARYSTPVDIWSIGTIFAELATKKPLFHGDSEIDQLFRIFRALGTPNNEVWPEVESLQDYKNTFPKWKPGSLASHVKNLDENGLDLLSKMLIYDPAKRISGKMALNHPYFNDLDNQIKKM
T2 sequence (Q96GD4 whole entry): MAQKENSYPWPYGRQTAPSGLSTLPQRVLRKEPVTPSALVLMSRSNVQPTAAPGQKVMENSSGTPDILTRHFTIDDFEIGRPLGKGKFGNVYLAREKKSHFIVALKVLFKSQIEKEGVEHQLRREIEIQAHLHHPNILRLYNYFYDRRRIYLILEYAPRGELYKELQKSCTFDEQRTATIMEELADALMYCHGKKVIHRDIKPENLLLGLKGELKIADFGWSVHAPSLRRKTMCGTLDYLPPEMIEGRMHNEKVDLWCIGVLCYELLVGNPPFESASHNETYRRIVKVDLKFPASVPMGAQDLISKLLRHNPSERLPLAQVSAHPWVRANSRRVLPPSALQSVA

SMILES | IC50 [1] [nM] | IC50 [2] [nM] | IC50 [3] [nM] | Activity [4] [µM] | IC50 [5] [nM] | hepatic extraction ratio [6] | also measured
Cn1cc(Nc2ncc3cnn([C@@H]4C[C@H]5C[C@H]5C4)c3n2)cc1C(=O)N1CCC[C@@H]1CN1CCOCC1 | 1.5 | 24 | 390 | 0.03 | 4 | – | –
Cn1cc(Nc2ncc3cnn([C@@H]4C[C@H]5C[C@H]5C4)c3n2)cc1C(=O)N1CCC[C@H]1CN1CCOCC1 | 3 | 8 | 21 | 0.017 | 4 | – | –
Cn1cc(Nc2ncc3cnn(C4C5CC6CC(C5)CC4C6)c3n2)cc1C(N)=O (stereo not given) | 25 | 270 | 38 | 0.3 | 18 | 0.89 | –
Cn1cc(Nc2ncc3cnn([C@@H]4CC[C@H]5CCC[C@H]54)c3n2)cc1C(N)=O | 13 | 66 | 13 | 0.1 | 22 | 0.85 | –
Cn1cc(Nc2ncc3cnn([C@@H]4C[C@H]5C[C@H]5C4)c3n2)cc1C(=O)N1CCC[C@H]1CN1CCCC1 | 10 | 11 | 47 | 0.03 | 5 | – | –
Cn1cc(Nc2ncc3cnn(C4CCCCCC4)c3n2)cc1C(N)=O | 87 | 140 | 15 | 0.23 | 23 | 0.87 | –
C[C@@H]1CCCN1C(=O)c1cc(Nc2ncc3cnn([C@@H]4C[C@H]5C[C@H]5C4)c3n2)cn1C | 2 | 130 | 40 | 0.03 | 4 | – | –
COC[C@H]1CCCN1C(=O)c1cc(Nc2ncc3cnn([C@@H]4C[C@H]5C[C@H]5C4)c3n2)cn1C | 16 | 60 | 150 | 0.065 | 6 | – | –
Cn1cc(Nc2ncc3cnn([C@H]4CC[C@H]5CCC[C@H]54)c3n2)cc1C(N)=O | 21 | 230 | 16 | 0.3 | 12 | 0.76 | –
Cn1cc(Nc2ncc3cnn(C4CCC(C)(C)CC4)c3n2)cc1C(N)=O | 30 | 100 | 24 | 0.1 | 5 | 0.92 | –
CC(C)n1ncc2cnc(Nc3cc(C(N)=O)n(C)c3)nc21 | 230 | 1000 | 160 | 1 | 38 | 0.27 | –
Cn1cc(Nc2ncc3cnn([C@@H]4C[C@H]5C[C@H]5C4)c3n2)cc1C(=O)N1CCC[C@H]1CO | 4 | 18 | 10 | 0.01 | 3 | – | –
CNC[C@@H]1CCCN1C(=O)c1cc(Nc2ncc3cnn([C@@H]4C[C@H]5C[C@H]5C4)c3n2)cn1C | 80 | 150 | 1200 | 0.3 | 50 | – | –
COC[C@@H]1CCCN1C(=O)c1cc(Nc2ncc3cnn([C@@H]4C[C@H]5C[C@H]5C4)c3n2)cn1C | 4 | 10 | 22 | 0.03 | 5 | – | Activity [7]: Toxic; Ratio [8]: 32; Activity [9]: Toxic; t1/2 [10]: 5 h; inhibition in vivo at 25 mg/kg [11]: 60%; inhibition [12]: Active; inhibition [13]: Active; inhibition [14]: Active; Activity [15]: 2%; half-life [16]: 1 h; TGI [17]: 30%; Vz [18]: 5 L/kg; AUC [19]: 1230 ng·h/mL; inhibition in vivo at 25 mg/kg [20]: 90%; CL/F [21]: 65 mL/min/kg; AUC [22]: 6420 ng·h/mL; Activity [23]: Toxic; Vz [24]: 3 L/kg; inhibition [25]: Active
Cn1cc(Nc2ncc3cnn(C4CCC5(CC4)CC5)c3n2)cc1C(N)=O | 40 | 120 | 19 | 0.3 | 5 | 0.89 | –
CN(C)C(=O)[C@@H]1CCCN1C(=O)c1cc(Nc2ncc3cnn([C@@H]4C[C@H]5C[C@H]5C4)c3n2)cn1C | 19 | 160 | 1700 | 0.1 | 4 | – | –
O=C1N=C(NCc2cccs2)S/C1=C\c1ccc2ncccc2c1 | – | 3200 | – | – | – | – | –
Cn1cc(Nc2ncc3cnn([C@@H]4C[C@H]5C[C@H]5C4)c3n2)cc1C(N)=O | 17 | 79 | 24 | 0.1 | 4 | 0.69 | –
Cn1cc(Nc2ncc3cnn([C@@H]4C[C@H]5C[C@H]5C4)c3n2)cc1C(=O)N1CCC[C@@H]1CO | 100 | 170 | 150 | 0.1 | 36 | – | –
Cn1cc(Nc2ncc3cnn(C4CCC5(CC5)C4)c3n2)cc1C(N)=O (stereo not given) | 150 | 290 | 50 | 0.65 | 19 | 0.89 | –
O=C(O)c1ccc(Nc2ncc3c(n2)-c2ccc(Cl)cc2C(c2c(F)cccc2F)=NC3)cc1 [MLN-8054] | – | 690 | – | – | – | – | –
Cn1cc(Nc2ncc3cnn([C@@H]4C[C@H]5C[C@H]5C4)c3n2)cc1C(=O)N1CCCC1 | 17 | 95 | 41 | 0.1 | 40 | – | –
Cn1cc(Nc2ncc3cnn([C@@H]4C[C@H]5C[C@H]5C4)c3n2)cc1C(=O)N1CCC[C@H]1C(N)=O | 6 | 47 | 10 | 0.03 | 4 | – | –
